Values of other authors as cited in publication PMC6780087 (Marine Drugs, 2019).

Legend:
NaChBac [1] = settings: ref [54]
NaChBac [2] = settings: ref [55]

CC(C)c1cccc(C(C)C)c1O [propofol]
effect on NaChBac (NaChBac [1]): inhibits peak currents and promotes activation-linked inactivation in NaChBac
binding to NaChBac (NaChBac [2]): binding to multiple channel sites
